Experimental data as given in PubChem BioAssay AID2060912 (Molecular Pharmacology Branch, DTP, NCI, 2025).

System: HUVEC/MSC spheroids viability
Experiment: Human HUVEC/MSC cell line growth inhibition [KRAS2];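 on viability, T/C: percent of DMSO vehicle control luminescence so 100% = untreated viability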
Settings: for IC50: curve of first compound; for viability, T/C: stronger effect = lower value
Summary of the method: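 Growth/viability of tumour-free HUVEC–hMSC spheroids was measured after exposure to targeted small molecules and KRAS inhibitors, singly or in combination. Agents were diluted in half-log steps from Cmax-based top concentrations, capped at 10 microM without known Cmax.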

[1] = second compound 0.0316 µM, first compound 0.0316 µM
[2] = second compound 0.0316 µM, first compound 0.1 µM
[3] = second compound 0.1 µM, first compound 0.0316 µM
[4] = second compound 0.1 µM, first compound 0.1 µM
[5] = second compound 0.316 µM, first compound 0.0316 µM
[6] = second compound 0.316 µM, first compound 0.1 µM
[7] = second compound 1 µM, first compound 0.0316 µM
[8] = second compound 1 µM, first compound 0.1 µM
[9] = second compound 3.16 µM, first compound 0.0316 µM
[10] = second compound 3.16 µM, first compound 0.1 µM
[11] = second compound 10 µM, first compound 0.0316 µM
[12] = second compound 10 µM, first compound 0.1 µM

CC(C)NCC(C(=O)N1CCN(c2ncnc3c2C(C)CC3O)CC1)c1ccc(Cl)cc1 (centres undefined) + CC1OCC2(CCN(c3cnc(Sc4ccnc(N)c4Cl)c(N)n3)CC2)C1N
IC50 (second compound 0.0316 µM): 7.88 µM
IC50 (second compound 0.1 µM): 6.15 µM
IC50 (second compound 0.316 µM): 2.55 µM
IC50 (second compound 1 µM): 1.31 µM
IC50 (second compound 3.16 µM): 0.564 µM
IC50 (second compound 10 µM): 0.228 µM
viability, T/C [1]: 115%
viability, T/C [2]: 109%
viability, T/C (second compound 0.0316 µM, first compound 0.316 µM): 93.5%
viability, T/C (second compound 0.0316 µM, first compound 1 µM): 66.2%
viability, T/C (second compound 0.0316 µM, first compound 3.16 µM): 56.2%
viability, T/C (second compound 0.0316 µM, first compound 10 µM): 47.6%
viability, T/C [3]: 123%
viability, T/C [4]: 107%
viability, T/C (second compound 0.1 µM, first compound 0.316 µM): 90.9%
viability, T/C (second compound 0.1 µM, first compound 1 µM): 59.6%
viability, T/C (second compound 0.1 µM, first compound 3.16 µM): 57.3%
viability, T/C (second compound 0.1 µM, first compound 10 µM): 46.1%
viability, T/C [5]: 94.1%
viability, T/C [6]: 107%
viability, T/C (second compound 0.316 µM, first compound 0.316 µM): 98.1%
viability, T/C (second compound 0.316 µM, first compound 1 µM): 68.1%
viability, T/C (second compound 0.316 µM, first compound 3.16 µM): 49.5%
viability, T/C (second compound 0.316 µM, first compound 10 µM): 38%
viability, T/C [7]: 89.6%
viability, T/C [8]: 91%
viability, T/C (second compound 1 µM, first compound 0.316 µM): 69.8%
viability, T/C (second compound 1 µM, first compound 1 µM): 56.4%
viability, T/C (second compound 1 µM, first compound 3.16 µM): 36.4%
viability, T/C (second compound 1 µM, first compound 10 µM): 31.6%
viability, T/C [9]: 80.3%
viability, T/C [10]: 74.4%
viability, T/C (second compound 3.16 µM, first compound 0.316 µM): 58.3%
viability, T/C (second compound 3.16 µM, first compound 1 µM): 43.1%
viability, T/C (second compound 3.16 µM, first compound 3.16 µM): 22.1%
viability, T/C (second compound 3.16 µM, first compound 10 µM): 21%
viability, T/C [11]: 65.1%
viability, T/C [12]: 62.4%
viability, T/C (second compound 10 µM, first compound 0.316 µM): 43.4%
viability, T/C (second compound 10 µM, first compound 1 µM): 30.8%
viability, T/C (second compound 10 µM, first compound 3.16 µM): 14.3%
viability, T/C (second compound 10 µM, first compound 10 µM): 5.59%

CC(C)n1nc(-c2ccc3oc(N)nc3c2)c2c(N)ncnc21 + CC1OCC2(CCN(c3cnc(Sc4ccnc(N)c4Cl)c(N)n3)CC2)C1N
IC50 (second compound 0.0316 µM): 0.0148 µM
IC50 (second compound 0.1 µM): 0.0083 µM
IC50 (second compound 0.316 µM): 0.00312 µM
IC50 (second compound 1 µM): 0.00242 µM
IC50 (second compound 3.16 µM): 0.00161 µM
IC50 (second compound 10 µM): < 0.000316 µM
viability, T/C (second compound 0.0316 µM, first compound 0.000316 µM): 108%
viability, T/C (second compound 0.0316 µM, first compound 0.001 µM): 95.2%
viability, T/C (second compound 0.0316 µM, first compound 0.00316 µM): 63.9%
viability, T/C (second compound 0.0316 µM, first compound 0.01 µM): 53.5%
viability, T/C [1]: 50.4%
viability, T/C [2]: 43.9%
viability, T/C (second compound 0.1 µM, first compound 0.000316 µM): 100%
viability, T/C (second compound 0.1 µM, first compound 0.001 µM): 93.8%
viability, T/C (second compound 0.1 µM, first compound 0.00316 µM): 63.3%
viability, T/C (second compound 0.1 µM, first compound 0.01 µM): 49.6%
viability, T/C [3]: 43.6%
viability, T/C [4]: 36.4%
viability, T/C (second compound 0.316 µM, first compound 0.000316 µM): 85%
viability, T/C (second compound 0.316 µM, first compound 0.001 µM): 81.3%
viability, T/C (second compound 0.316 µM, first compound 0.00316 µM): 49.2%
viability, T/C (second compound 0.316 µM, first compound 0.01 µM): 47.5%
viability, T/C [5]: 42.6%
viability, T/C [6]: 35.6%
viability, T/C (second compound 1 µM, first compound 0.000316 µM): 83.8%
viability, T/C (second compound 1 µM, first compound 0.001 µM): 71.2%
viability, T/C (second compound 1 µM, first compound 0.00316 µM): 43.4%
viability, T/C (second compound 1 µM, first compound 0.01 µM): 33.1%
viability, T/C [7]: 33.3%
viability, T/C [8]: 28.9%
viability, T/C (second compound 3.16 µM, first compound 0.000316 µM): 62.6%
viability, T/C (second compound 3.16 µM, first compound 0.001 µM): 60%
viability, T/C (second compound 3.16 µM, first compound 0.00316 µM): 36.5%
viability, T/C (second compound 3.16 µM, first compound 0.01 µM): 27.7%
viability, T/C [9]: 22%
viability, T/C [10]: 23.1%
viability, T/C (second compound 10 µM, first compound 0.000316 µM): 48.2%
viability, T/C (second compound 10 µM, first compound 0.001 µM): 41.8%
viability, T/C (second compound 10 µM, first compound 0.00316 µM): 22.3%
viability, T/C (second compound 10 µM, first compound 0.01 µM): 16.2%
viability, T/C [11]: 16.8%
viability, T/C [12]: 10.7%
